This note sets out measurements from paper PMC10154249, “Unique progerin C-terminal peptide ameliorates Hutchinson–Gilford progeria syndrome phenotype by rescuing BUBR1” (Nature Aging, 2023).

Test [1] deals with BUBR1 binding to BUB3 and CDC20. The test is described as follows: CoIP of BUBR1 and SAC proteins BUB3 and CDC20 in HEK-293T cells. Type of test: cell-based. Conditions: UPCP 18 μM, nocodazole 200 ng ml^–1. On the procedure: (§1) Detailed descriptions of CoIP were described previously[55],[56]. Cells were harvested and washed three times in cold PBS, then lysed in CoIP buffer (25 mM Tris-HCl (pH 7.5), 150 mM KCl, 5 mM EDTA, and 0.5% NP-40) plus protease inhibitor cocktail tablet (Roche). Incubate on ice and shock lysates on the vortex shaker 15 times for 30 s each. Microcentrifuge in 12,000g for 15 min at 4 °C, collect the supernatant, and incubate with 3 μg primary antibodies with gentle shaking overnight at 4 °C, followed by adding 20–40 μl Pure Proteome Protein A/G Mix Magnetic Beads (Millipore, catalog no. […]02) for 3 h. Wash the beads three times with 1 ml CoIP buffer for 8 min each, resuspend in 50 μl 1× loading buffer, and incubate at 100 °C for 8 min. Throw beads away and analyze by immunoblotting.

The target of test [2] is T1, BUBR1 (Homo sapiens, UniProt O60566).
T1 construct: made in house
T1 sequence (O60566 whole entry): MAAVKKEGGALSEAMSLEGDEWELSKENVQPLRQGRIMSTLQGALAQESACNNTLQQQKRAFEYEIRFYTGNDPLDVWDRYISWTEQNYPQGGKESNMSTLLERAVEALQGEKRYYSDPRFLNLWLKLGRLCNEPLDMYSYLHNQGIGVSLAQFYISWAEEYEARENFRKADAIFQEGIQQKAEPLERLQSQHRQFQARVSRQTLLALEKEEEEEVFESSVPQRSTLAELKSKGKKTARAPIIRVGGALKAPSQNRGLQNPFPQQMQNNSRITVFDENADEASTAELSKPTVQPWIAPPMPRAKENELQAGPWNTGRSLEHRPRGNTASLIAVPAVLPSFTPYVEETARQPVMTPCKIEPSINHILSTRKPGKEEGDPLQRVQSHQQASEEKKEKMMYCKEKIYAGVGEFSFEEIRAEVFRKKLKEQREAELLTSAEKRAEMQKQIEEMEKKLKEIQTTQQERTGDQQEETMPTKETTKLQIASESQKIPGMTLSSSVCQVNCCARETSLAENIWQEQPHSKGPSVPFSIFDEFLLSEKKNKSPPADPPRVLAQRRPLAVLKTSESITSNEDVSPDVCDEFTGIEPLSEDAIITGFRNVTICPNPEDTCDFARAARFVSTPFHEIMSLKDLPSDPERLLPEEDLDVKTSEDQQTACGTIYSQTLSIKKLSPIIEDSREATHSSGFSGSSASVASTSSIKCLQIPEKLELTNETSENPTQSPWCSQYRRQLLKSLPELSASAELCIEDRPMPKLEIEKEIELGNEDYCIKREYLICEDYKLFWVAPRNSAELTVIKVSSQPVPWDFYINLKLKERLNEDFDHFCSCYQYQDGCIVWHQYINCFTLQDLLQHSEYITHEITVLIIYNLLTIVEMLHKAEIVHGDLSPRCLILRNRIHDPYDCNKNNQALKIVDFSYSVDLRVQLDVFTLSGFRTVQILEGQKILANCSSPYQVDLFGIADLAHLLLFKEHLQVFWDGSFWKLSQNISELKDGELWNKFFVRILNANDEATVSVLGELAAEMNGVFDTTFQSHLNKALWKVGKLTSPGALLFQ
The test is described as follows: Pulldown assay of UPCP and BUBR1. It is filed as binding. Conditions: pulldown (and MST); His-UPCP 10 μg with Flag beads-BUBR1, 16 h at 4 °C. The method, then:
Cells were harvested and lysed in buffer A mixed with protease inhibitor cocktail tablet (Roche) after 48 h. […] The beads were washed three times using 1× Tris saline buffer (50 mM Tris-HCl (pH 7.4) and 150 mM NaCl)) for 8 min each. The bound proteins BUBR1 or PTBP1 were eluted with 3×Flag peptide (ApexBio) for 2 h at 4 °C. Finally, BUBR1 or PTBP1 was concentrated and recovered by using the Centrifugal Filters (Amicon Ultra).
A detailed description of the pulldown assay was described previously. His-UPCP fusion protein was expression in bacteria (BL21) and induced with 0.5 mM isopropyl-β-D-thio-galactoside for 16 h at 16 °C. The bacteria were harvested and lysed in TEN buffer (20 mM Tris-HCl (pH7.4), 0.1mM EDTA, 100 mM NaCl). […] His-UPCP was eluted with Imidazole eluent (50 mM NaH2PO4, 300 mM NaCl and 50 mM Imidazole) for 2 h at 4 °C and concentrated and recovered using centrifugal filters (Amicon Ultra). For the pulldown of His-UPCP and Flag-BUBR1 or Flag-PTBP1, 10 μg His-UPCP was incubated with Flag beads (Biotool, catalog no. B23102), Flag beads-BUBR1 or Flag beads-PTBP1 respectively for 16 h at 4 °C. The beads were washed three times with PBS and added to 1× loading buffer for western blot.

The test system of test [3] is progerin–PTBP1 interaction. The test can be described thus: CoIP of progerin and PTBP1 in HEK-293T cells. Conditions: CoIP in HEK-293T; HGPS cells. It is filed as cell-based. On the procedure:
as §1

For test [4], the system named is BUBR1 in IMR90-progerin cells. The test can be described thus: Western blot of BUBR1 in progerin-expressing IMR90 cells. It is filed as cell-based, human. On the procedure:
Western blot was performed as previously described. Cells were lysed in 1× Laemmli sample buffer after washing twice in cold PBS without calcium and magnesium. Protein concentrations were determined using the bicinchoninic acid (BCA) protein assay. Protein lysates were subjected to SDS–PAGE, transferred to 0.45-μm pore size hydrophobic PVDF transfer membrane (Merck Millipore), detected with the appropriate primary antibodies coupled with horseradish peroxidase-conjugated corresponding secondary antibodies, and visualized using enhanced chemiluminescence ECL reagent (GE Healthcare). The Tanon 5500 high-definition low-illumination CCD system (Tanon FLI Capture v.1.02) was used to capture chemiluminescent signals.
On the technique in general: Immunoblotting shows a protein as a band on a membrane.

In test [5] the test system is senescent IMR90 cells. The test is described as follows: Ki67 immunofluorescence of DNA damage-induced senescent IMR90 cells. Conditions: UPCP. It is filed as cell-based, human. The method, then:
Fibroblasts from patients with HGPS were obtained from The Progeria Research Foundation Cell and Tissue Bank (http://www.progeriaresearch.org). The following fibroblasts were used: HGADFN003, HGADFN167, HGMDFN090 and HGFDFN168. Human dermal fibroblasts (GM00038 and AG09602) were obtained from Coriell Cell Repository (https://catalog.coriell.org). These cells were characterized by DNA fingerprinting and isozyme detection and were tested by a MycoBlue Mycoplasma Detector (Vazyme Biotech) to exclude mycoplasma contamination before the experiments. […] HGADFN003, HGADFN167, HGMDFN090, HGFDFN168, GM00038 and AG09602 were cultured in DMEM medium with 15% (v/v) fetal bovine serum (VivaCell). All cell lines were grown at 37 °C with 5% CO2 and IMR90, CRL-1474, HGADFN003, HGADFN167, HGMDFN090, HGFDFN168, GM00038 and AG09602 were cultured with 5% O2. For bleomycin-induced senescence, IMR90 cells were incubated with the culture medium containing 20 μg ml^–1 Bleomycin (Selleck, catalog no. S1214) for 2 h and analyzed 10 days later, or as otherwise indicated. For doxorubicin-induced senescence, IMR90 cells were treated twice with 100 nM Doxorubicin (Selleck, catalog no. S1208) with a 2 day interval and analyzed 10 days later, or as otherwise indicated. For ionizing radiation (IR)-induced senescence, IMR90 cells were exposed to 10 Gy Gamma rays, and analyzed 10 days later, or as otherwise indicated, the control IMR90 cells were mock irradiated. For etoposide-induced senescence, IMR90 cells incubated with the culture medium containing 10 μM Etoposide (Sigma, catalog no. E1383) for 48 h and analyzed 10 days later, or as otherwise indicated.
Immunofluorescence was performed as described previously. Cells were plated on cover slips in 12-well plates, left overnight before the treatment. Cells were fixed in 1% formaldehyde in culture medium for 10 min at 37 °C and permeabilized with 0.2% Triton X-100 in PBS for 10 min at room temperature. Cells were washed twice in PBS and blocked for 1 h with 5% BSA in PBS and then incubated with primary antibodies at 4 °C overnight, washed three times in PBS and incubated with secondary antibodies for 1 h at room temperature. Cell nuclei were counterstained with a 500 nM concentration of 4,6-diamidino-2-phenylindole (DAPI) (Sigma). Images were acquired by a fluorescence microscope (OLYMPUS FV-1000, Carl Zeiss LSM880 or Leica DMi8) and analyzed with software NIS-Elements AR v.5.0.1 (Nikon), FLUOVIEW v.4.2b (OLYMPUS), ZEN v.2.3 SP1 (Carl Zeiss) and Leica Application Suite X v.3.6.0.24 (Leica). Cells were quantified by investigators who were blinded to the identity of the analyzed cell.

For the substance “H-YGRKKRRQRRRYNLRSRTVLCGTCGQPADKASASGSGAQSPQNCSIM-OH (cysteines drawn unpaired) [UPCP, unique progerin C-terminal peptide]”, in test [1], the “binding of BUBR1 to SAC proteins (BUB3 or CDC20)” value is “did not block the binding of BUBR1 to other proteins such as PTBP1 or other SAC proteins (BUB3 or CDC20)”. For the same substance, the “direct combination with BUBR1” value in test [2] is reported as “could combine with BUBR1 directly in vitro”. Also, the “interaction of PTBP1 and progerin” value in test [3] was “weakened the interaction of PTBP1 and progerin”. Moreover, the BUBR1 abundance entry in test [4] is “upregulated BUBR1”. In addition, the Ki67 positive cells in test [5] (BLM (bleomycin 20 μg/mL 2 h), replicate 1) is recorded as 14.5%; in test [5] (BLM (bleomycin 20 μg/mL 2 h), replicate 2) it was 18.5%; in test [5] (BLM (bleomycin 20 μg/mL 2 h), replicate 3) it was 21.5%; in test [5] (Dox (doxorubicin 100 nM twice), replicate 1), 14%; in test [5] (Dox (doxorubicin 100 nM twice), replicate 2) it was 22%; in test [5] (Dox (doxorubicin 100 nM twice), replicate 3), 19%. The Ki67 positive cells is 18.5% in test [5] (Eto (etoposide 10 μM 48 h), replicate 1); 20% in test [5] (Eto (etoposide 10 μM 48 h), replicate 2); 14.5% in test [5] (Eto (etoposide 10 μM 48 h), replicate 3); 19% in test [5] (IR (10 Gy), replicate 1); 15.5% in test [5] (IR (10 Gy), replicate 2); 17% in test [5] (IR (10 Gy), replicate 3).
